Experimental data published in patent publication US5128359A, “Benzimidazole and azabenzimidazole derivatives which are thromboxane receptor antagonists, their methods of preparation” (Laboratoires UPSA, priority 1990, dated 1992).

Target: T1, TXA2 receptors of human platelets (Homo sapiens, UniProt P21731)
T1 construct: Human platelets incubate in the presence of a single concentration; endogenous in cells; host or cells: human platelets
T1 sequence (P21731 1-343): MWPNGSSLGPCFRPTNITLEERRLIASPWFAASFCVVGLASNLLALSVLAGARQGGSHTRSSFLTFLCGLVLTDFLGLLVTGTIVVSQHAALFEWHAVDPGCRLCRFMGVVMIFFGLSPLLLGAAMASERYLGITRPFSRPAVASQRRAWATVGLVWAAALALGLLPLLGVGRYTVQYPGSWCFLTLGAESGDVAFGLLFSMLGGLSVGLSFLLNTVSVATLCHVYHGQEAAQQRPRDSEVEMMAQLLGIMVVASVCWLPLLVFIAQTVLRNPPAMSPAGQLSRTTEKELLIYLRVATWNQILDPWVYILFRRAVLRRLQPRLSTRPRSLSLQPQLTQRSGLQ
Test: displacement of radioligand [^125 I]PTA-OH specifically bound to the TXA2 receptors of human platelets
Format: binding
Conditions: for inhibition at 10 µM / inhibition at 0.1 µM: 0.5 h, 30 minutes at 37° C; for inhibition at 10 µM: 1E-5 M competing agent, read-out: % displacement, Concentration 1E-5 M; for inhibition at 0.1 µM: 1E-7 M competing agent, read-out: % displacement, Concentration 1E-7 M; for Ki: determined according to the formula of CHENG and PRUSOFF, read-out: Ki (inhibition constant)
Description: The affinity of the products of the Examples described for thromboxane A2 receptors is evaluated by the technique of displacing a radioligand specifically bound to the TXA2 receptors of human platelets. […] The reaction is completed by the addition of a buffer, followed by rapid filtration through […] filters. […] The results are expressed, for the doses tested, as the percentage displacement of the radioligand specifically bound to the TXA2 receptors of human platelets.

Structure (SMILES)	inhibition at 10 µM [%]	inhibition at 0.1 µM [%]	Ki [nM]
CC(C)(CC(=O)O)Cc1nc2cc(Cl)cnc2n1Cc1ccc(Cl)cc1 [Example 92]	100	97	12.5
CC(C)(CC(=O)O)Cc1nc2ccccc2n1Cc1ccc(Br)cc1F [Example 76, 4-[1-(2-Fluoro-4-bromobenzyl)benzimidazol-2-yl]-3,3-dimethylbutanoic acid]	99	88	11.4
CC(C)(CC(=O)O)Cc1nc2ccccc2n1Cc1ccccc1 [Example 58, 4-(1 Benzylbenzimidazol-2-yl)-3,3-dimethylbutanoic acid]	95	13	
O=C(O)CC1(Cc2nc3cc(F)ccc3n2Cc2ccc(Cl)cc2)CCCCC1 [Example 73, [1-[1-(4-Chlorobenzyl)-5-fluorobenzimidazol-2-yl]methylcyclohex-1-yl]aceticacid]	98	0	807
CC(C)(CC(=O)O)Cc1nc2cc(F)ccc2n1Cc1ccc(Cl)c(Cl)c1 [Example 80, 4-[1-(3,4-Dichlorobenzyl)-5-fluorobenzimidazol-2-yl]-3,3-dimethylbutanoic acid]	92	89	6.02
CC(C)(CC(N)=O)Cc1nc2ccccc2n1Cc1ccc(Cl)cc1 [Example 85, 4-[1-(4-Chlorobenzyl)benzimidazol-2-yl]-3,3-dimethylbutanamide]	90	7	
CCC(CC)(CC(=O)O)Cc1nc2ccccc2n1Cc1ccc(Cl)cc1 [Example 82, 4-[1-(4-Chlorobenzyl)benzimidazol-2-yl]-3,3-diethylbutanoic acid]	97	35	
CC(C)(CC(=O)O)Cc1nc2ccccc2n1Cc1ccc(Cl)cc1 [Example 77, 4-[1-(4-Chlorobenzyl)benzimidazol-2-yl]-3,3-dimethylbutanoic acid]	100	85	31
CC(C)(CC(=O)O)Cc1nc2ccccc2n1Cc1cccc(C(F)(F)F)c1 [Example 71, 4-[1-(3-Trifluoromethylbenzyl)benzimidazol-2-yl]-3,3-dimethylbutanoic acid]	100	49	
CC(C)(CC(=O)O)Cc1nc2ccccc2n1Cc1ccc2ccccc2c1 [Example 84, 4-[1-(Naphth-2-ylmethyl)benzimidazol-2-yl]-3,3-dimethylbutanoic acid]	98	85	
CC(C)(CC(=O)O)Cc1nc2ccccc2n1Cc1ccc(Br)cc1 [Example 69, 4-[1-(4 Bromobenzyl)benzimidazol-2-yl]-3,3-dimethylbutanoic acid]	96	86	15.8
CC(C)(CC(=O)O)Cc1nc2cc(F)ccc2n1Cc1ccc(S(C)(=O)=O)cc1 [Example 97, 4-[1-(4-Methylsulfonylbenzyl)-5-fluorobenzimidazol-2-yl]-3,3-dimethylbutanoic acid]	100	100	37
CC(C)(CC(=O)O)Cc1nc2ccccc2n1Cc1ccc(F)cc1 [Example 67]	100	66	
Cc1ccc(Cn2c(CC(C)(C)CC(=O)O)nc3ccccc32)cc1 [Example 66, 4-[1-(4-Methylbenzyl)benzimidazol-2-yl]-3,3-dimethylbutanoic acid]	100	52	
CC(C)(CC(=O)O)Cc1nc2ccccc2n1Cc1ccc([N+](=O)[O-])cc1 [Example 81, 4-[1-(4-Nitrobenzyl)benzimidazol-2-yl]-3,3-dimethylbutanoic acid]	100	83	60.1
CC(C)(CC(=O)O)Cc1nc2cc(Cl)ccc2n1Cc1ccc(Cl)cc1 [Example 79, 4-[1 (4-Chlorobenzyl)-5-chlorobenzimidazol-2-yl]-3,3-dimethylbutanoic acid]	99	74	23.2
COc1ccc2c(c1)nc(CC(C)(C)CC(=O)O)n2Cc1ccc(Cl)cc1 [Example 78, 4-[1-(4-Chlorobenzyl)-5-methoxybenzimidazol-2-yl]-3,3-dimethylbutanoic acid]	100	44	
CC(C)(CC(=O)O)Cc1nc2cc(Cl)c(Cl)cc2n1Cc1ccc(Cl)cc1 [Example 70, 4-[1-(4-Chlorobenzyl)-5,6-dichlorobenzimidazol-2-yl]-3,3-dimethylbutanoic acid]	100	14	
CC(C)(CC(=O)O)Cc1nc2ccccc2n1Cc1ccc(O)cc1 [Example 87, 4-[1-(4-Hydroxybenzyl)benzimidazol-2-yl]-3,3-dimethylbutanoic acid]	96	50	
CC(C)(CC(=O)O)Cc1nc2cc(F)ccc2n1Cc1ccc(Cl)cc1 [Example 74, 4-[1-(4-Chlorobenzyl)-5-fluorobenzimidazol-2-yl]-3,3-dimethylbutanoic acid]	100	94	6.3
O=C(O)[C@@H]1CC[C@H]1c1nc2cc(F)ccc2n1Cc1ccc(Cl)cc1 (relative stereo) [Example 90, Trans-2-[1 (4-chlorobenzyl)-5-fluorobenzimidazol-2-yl]cyclobutane-1 carboxylic acid]	97	2	1180
CC(CC(=O)O)Cc1nc2ccccc2n1Cc1ccc(Cl)cc1 (centres unmarked) [Example 83, 4-[1-(4-Chlorobenzyl)benzimidazol-2-yl]-3-methylbutanoic acid]	100	10	

Continued, values first:

inhibition at 10 µM [%]	inhibition at 0.1 µM [%]	Ki [nM]	Structure (SMILES)
98	100		CC(C)(CC(=O)O)Cc1nc2cc(F)ccc2n1Cc1ccc(Br)cc1F [Example 105, 4-[1-(2-Fluoro-4-bromobenzyl)-5-fluorobenzimidazol-2-yl]-3,3-dimethylbutanoic acid]
89	77		CC(C)(CC(=O)O)Cc1nc2cc(Cl)ccc2n1Cc1ccc2ccccc2c1 [Example 143, 4-[1-(Naphth-2-ylmethyl)-5-chlorobenzimidazol-2-yl]-3,3-dimethylbutanoic acid]
87	77		CC(C)(CC(=O)O)Cc1nc2cc(Cl)ccc2n1Cc1ccc(Cl)cc1F [Example 123, 4-[1-(2-Fluoro-4-chlorobenzyl)-5-chlorobenzimidazol-2-yl]3,3-dimethylbutanoic acid]
92	54		C[S+]([O-])c1ccc(Cn2c(CC(C)(C)CC(=O)O)nc3cc(Cl)ccc32)cc1 (centres unmarked) [Example 118, 4-[1-(4-Methylsulfoxybenzyl)-5-chlorobenzimidazol-2-yl]-3,3-dimethylbutanoic acid]
100	79		COc1ccc(Cn2c(CC(C)(C)CC(=O)O)nc3cc(F)ccc32)cc1 [Example 131, 4-[1-(4-Methoxybenzyl)-5 fluorobenzimidazol-2-yl]-3,3-dimethylbutanoic acid]
98	80		O=C(O)CC1(Cc2nc3cc(F)ccc3n2Cc2ccc(Cl)cc2)CC1 [Example 150, [1-[1-(4-Chlorobenzyl)-5-fluorobenzimidazol-2-yl]methylcycloprop-1-yl]acetic acid]
100	98	13	CC(C)(CC(=O)O)Cc1nc2cc(Cl)ccc2n1Cc1ccc(Br)cc1 [Example 139, 4-[1 (4-Bromobenzyl)-5-chlorobenzimidazol-2-yl]-3,3-dimethylbutanoic acid]
96	15		O=C(O)[C@@H]1CC=CC[C@@H]1c1nc2cc(F)ccc2n1Cc1ccc(Cl)cc1 (relative stereo) [Example 161, Cis-5-[1-(4-chlorobenzyl)-5-fluorobenzimidazol-2-yl]cyclohexene-4-carboxylic acid]
100	37		O=C(O)[C@@H]1CCC[C@H]1c1nc2cc(F)ccc2n1Cc1ccc(Cl)cc1 (relative stereo) [Example 153, Trans 2-[1-(4-chlorobenzyl)-5-fluorobenzimidazol-2-yl]cyclopentane-1-carboxylic acid]
82	61		CC(C)(CC(=O)O)Cc1nc2cc(Cl)ccc2n1Cc1ccc(S(C)(=O)=O)cc1 [Example 119, 4-[1-(4-Methylsulfonylbenzyl)-5-chlorobenzimidazol-2-yl]-3,3-dimethylbutanoic acid]
67	38		CC(C)(CC(=O)O)Cc1nc2cc(Br)ccc2n1Cc1ccc(Cl)cc1 [Example 127, 4-[1 (4-Chlorobenzyl)-5-bromobenzimidazol-2-yl]-3,3-dimethylbutanoic acid]
93	91		CC(C)(CC(=O)O)Cc1nc2cc(F)ccc2n1Cc1ccc2ccccc2c1 [Example 147, 4-[1(Naphth-2-ylmethyl)-5-fluorobenzimidazol-2-yl]-3,3-dimethylbutanoic acid]
